US20030108584A1, “Method for producing wax premixes” (priority 2000, published 2003)

Test: Breakdown of active substance during preparation of wax premix by the melt method
Type: physicochemical
Conditions: comparative Example C, montan wax melt at 110° C.
Protocol: Preparation of a wax premix by the melt method.
32 parts by weight of montan wax in sheet form are heated, in a mixer, at 110° C. to give a melt. To this melt there are added
15 parts by weight of cyclosulfamuron in the form of particles with an average diameter of 5μ with stirring at 110° C. The resulting suspension is stirred at high speed for 10 minutes at 110° C. and then treated portionwise with
26.5 parts by weight of highly-disperse silica while stirring is continued at full mixer speed. The resulting flowable powder is cooled to room temperature with stirring and with addition of
26.5 parts by weight of talc.
This gives a wax premix consisting of agglomerated particles. Approximately 10 percent by weight of the cyclosulfamuron present are broken down.

## COc1cc(OC)nc(NC(=O)NS(=O)(=O)Nc2ccccc2C(=O)C2CC2)n1 [cyclosulfamuron]
  cyclosulfamuron present broken down: Approximately 10 percent by weight
